According to PubChem BioAssay AID1259407 (Chemical Carcinogenesis Research Information System (CCRIS), 2018):
Calls of active or inactive are those of the source. The rule behind the calls is not given here.

Test system: CCRIS mutagenicity, Ames/micronucleus/aberration tests
Experiment: CCRIS mutagenicity studies
[1] = Test System: AMES SALMONELLA TYPHIMURIUM, Strain/Indicator: TA98, Metabolic Activation: NONE, Method: STANDARD PLATE
[2] = Test System: AMES SALMONELLA TYPHIMURIUM, Strain/Indicator: TA98, Metabolic Activation: RAT, LIVER, S-9, AROCLOR 1254, Method: STANDARD PLATE
[3] = Test System: AMES SALMONELLA TYPHIMURIUM, Strain/Indicator: TA100, Metabolic Activation: NONE, Method: STANDARD PLATE
[4] = Test System: AMES SALMONELLA TYPHIMURIUM, Strain/Indicator: TA100, Metabolic Activation: RAT, LIVER, S-9, AROCLOR 1254, Method: STANDARD PLATE
[5] = Test System: AMES SALMONELLA TYPHIMURIUM, Strain/Indicator: TA100, Metabolic Activation: NONE, Method: PREINCUBATION
[6] = Test System: AMES SALMONELLA TYPHIMURIUM, Strain/Indicator: TA98, Metabolic Activation: NONE, Method: PREINCUBATION

Structure (SMILES): CC(=O)Nc1ccc(OCC(O)CNC(C)C)cc1 (stereo not drawn)
- mutagenic call (Test System: AMES SALMONELLA TYPHIMURIUM, Strain/Indicator: TA98, Metabolic Activation: NONE): inactive; negative
- mutagenic call [1]: inactive; negative
- mutagenic call (Test System: AMES SALMONELLA TYPHIMURIUM, Strain/Indicator: TA98, Metabolic Activation: RAT, LIVER, S-9, AROCLOR 1254): inactive; negative
- mutagenic call [2]: inactive; negative
- mutagenic call (Test System: AMES SALMONELLA TYPHIMURIUM, Strain/Indicator: TA100, Metabolic Activation: NONE): inactive; negative
- mutagenic call [3]: inactive; negative
- mutagenic call (Test System: AMES SALMONELLA TYPHIMURIUM, Strain/Indicator: TA100, Metabolic Activation: RAT, LIVER, S-9, AROCLOR 1254): inactive; negative
- mutagenic call [4]: inactive; negative
- mutagenic call (Test System: AMES SALMONELLA TYPHIMURIUM, Strain/Indicator: TA1535, Metabolic Activation: NONE): inactive; negative
- mutagenic call (Test System: AMES SALMONELLA TYPHIMURIUM, Strain/Indicator: TA1535, Metabolic Activation: RAT, LIVER, S-9, AROCLOR 1254): inactive; negative
- mutagenic call (Test System: AMES SALMONELLA TYPHIMURIUM, Strain/Indicator: TA1537, Metabolic Activation: NONE): inactive; negative
- mutagenic call (Test System: AMES SALMONELLA TYPHIMURIUM, Strain/Indicator: TA1537, Metabolic Activation: RAT, LIVER, S-9, AROCLOR 1254): inactive; negative

Structure (SMILES): O=CCO
- mutagenic call [5]: inactive; negative

Structure (SMILES): Cn1c(CC(=O)OCCCl)c(C(=O)O)c2ccccc21
- mutagenic call (Test System: AMES SALMONELLA TYPHIMURIUM, Strain/Indicator: TA97, Metabolic Activation: NONE, Method: STANDARD PLATE): inactive; negative
- mutagenic call (Test System: AMES SALMONELLA TYPHIMURIUM, Strain/Indicator: TA97, Metabolic Activation: RAT, LIVER, S-9, AROCLOR 1254 (4%, 10%), Method: STANDARD PLATE): inactive; negative
- mutagenic call [1]: active; positive
- mutagenic call (Test System: AMES SALMONELLA TYPHIMURIUM, Strain/Indicator: TA98, Metabolic Activation: RAT, LIVER, S-9, AROCLOR 1254 (4%, 10%), Method: STANDARD PLATE): inactive; negative
- mutagenic call [3]: inactive; negative
- mutagenic call (Test System: AMES SALMONELLA TYPHIMURIUM, Strain/Indicator: TA100, Metabolic Activation: RAT, LIVER, S-9, AROCLOR 1254 (4%, 10%), Method: STANDARD PLATE): inactive; negative
- mutagenic call (Test System: AMES SALMONELLA TYPHIMURIUM, Strain/Indicator: TA102, Metabolic Activation: NONE, Method: STANDARD PLATE): inactive; negative
- mutagenic call (Test System: AMES SALMONELLA TYPHIMURIUM, Strain/Indicator: TA102, Metabolic Activation: RAT, LIVER, S-9, AROCLOR 1254 (4%, 10%), Method: STANDARD PLATE): inactive; negative

Structure (SMILES): CC(=O)[C@H]1CC[C@H]2[C@@H]3C=CC4=CC(=O)CC[C@@]4(C)[C@@H]3CC[C@]12C
- mutagenic call (End Point: IN VIVO MICRONUCLEUS, Test System: HEPATOCYTES, Species: RAT, Strain/Sex: SPRAGUE-DAWLEY/FEMALE, Route: INTRAGASTRIC (GAVAGE)): inactive; negative

Structure (SMILES): C[N+](C)(CF)CCO
- mutagenic call (Test System: Mouse lymphoma, Strain/Indicator: L5178Y (tk+/tk-), Metabolic Activation: None, Method: Suspension/plate): inactive; negative
- mutagenic call (Test System: Mouse lymphoma, Strain/Indicator: L5178Y (tk+/tk-), Metabolic Activation: Rat, Liver, S-9, Aroclor 1254, Method: Suspension/plate): inactive; negative

Structure (SMILES): Nc1ccc(Nc2c3ccccc3nc3ccccc23)cc1
- mutagenic call (Test System: AMES SALMONELLA TYPHIMURIUM, Strain/Indicator: TA1537, Metabolic Activation: NONE, Method: STANDARD PLATE): active; positive

Structure (SMILES): C[C@H](CCC(=O)O)[C@H]1CC[C@H]2[C@@H]3C(=O)C[C@@H]4C[C@H](O)CC[C@]4(C)[C@H]3CC[C@]12C
- mutagenic call (Test System: AMES SALMONELLA TYPHIMURIUM, Strain/Indicator: TA98, Metabolic Activation: NONE, Method: FLUCTUATION TEST): inactive; negative
- mutagenic call [6]: inactive; negative
- mutagenic call (Test System: AMES SALMONELLA TYPHIMURIUM, Strain/Indicator: TA98, Metabolic Activation: RAT, LIVER, S-9, PCB, Method: PREINCUBATION): inactive; negative
- mutagenic call (Test System: AMES SALMONELLA TYPHIMURIUM, Strain/Indicator: TA100, Metabolic Activation: NONE, Method: FLUCTUATION TEST): inactive; negative

Structure (SMILES): O=C1CCC(=O)N1c1ccc(Cl)cc1
- mutagenic call [1]: inactive; negative
- mutagenic call [2]: inactive; negative
- mutagenic call [3]: inactive; negative
- mutagenic call [4]: inactive; negative

Structure (SMILES): C/C(O)=C1/C(=O)[C@@H]2[C@H]3c4c[nH]c5cccc(c45)C[C@H]3C(C)(C)N2C1=O
- mutagenic call [5]: inactive; negative
- mutagenic call (Test System: AMES SALMONELLA TYPHIMURIUM, Strain/Indicator: TA100, Metabolic Activation: RAT, LIVER, S-9, PHENOBARBITAL, Method: PREINCUBATION): inactive; negative

Structure (SMILES): c1ccc2c(c1)-c1cc3ccccc3cc1[C@@H]1N[C@H]21
- mutagenic call [6]: active; positive
- mutagenic call [1]: active; positive
- mutagenic call [3]: active; positive
